IC50 and inhibition in vivo data for five molecules are collected here from US5468760A, “Aralkyl-N-hydroxyureas as inhibitors of 5-lipoxygenase and oxidation of low density lipoprotein” (American Home Products Corporation, priority 1993, dated 1995).

For assay [1], the system named is low density lipoprotein (LDL). As to the kind of experiment: Inhibition of Copper Ion Mediated Oxidation of Low Density Lipoprotein. The assay is classed as biochemical. Conditions: Cu^+2 mediated oxidation of rabbit or monkey LDL; 37° C., 90 minutes; absorbance at 532 nm. On the procedure:
5. Inhibition of Copper Ion Mediated Oxidation of Low Density Lipoprotein
In this in vitro assay, the inhibition of Cu^+2 mediated oxidation of rabbit or monkey LDL by an invention compound is determined spectrophotometricallly. Oxidation of LDL results in the formation of LDL-diene which absorbs light at 532 nm. Inhibition of oxidation of LDL leads to a decrease in absorbance at 532 nm.
Rabbit or monkey LDL is prepared according to the procedures of Havel, Eder and Gragdon, "The Distribution and Chemical Composition of Ultracentrifugally Separated Lipoproteins in Human Serum,: J. Clin. Invest. 34, 1345-1353 (1955) and Parhtasarathy, Wieland and Steriberg, "A Role for Endothelial Cell Lipoxygenase in the Oxidative Modification of Low Density Lipoprotein," Proc. Natl. Acad. Sci. USA 86, 1046-1050 (1989). Test compound solutions are prepared by dissolving the invention compounds in ethanol at concentrations up to 248 μM. The medium used is Dulbecco's phosphate buffered saline containing 0.5 mg/ml bovine serum albumin. For standards, 0 to 10 μl of an aqueous solution of 1,1,3,3-tetraethoxypropane (1 μmol/ml H2 O) in 4.1 ml of medium is used.
Test compound solution (100 μl) is added to 4 ml of medium in incubation tubes. To each tube is added 10 μl of LDL solution and 25 μl of aqueous copper sulfate solution (1.32 mg/ml H2 O). The tubes are incubated at 37° C. for 90 minutes and the oxidation reaction quenched by addition of 1 ml of thiobarbituric acid solution (0.67% in 50% acetic acid). The tubes are heated at 90° C. for 1 hour, then chilled in an ice bath and the chromophore extracted into 2 ml of n-butanol. Absorbence is read at 532 nm and the results are reported as nmols of malondialdehyde equivalents.
Significant differences (p<0.05) are determined by the Dunnett T-test or by the Student-Newman-Keuls Test for significant differences between means. The assay is conducted using several concentrations [I] of the inhibitor test compounds. […] The IC50 is determined by non-linear regression, plotting log [I] vs. % inhibition. […]

For assay [2], the system named is LT-dependent bronchoconstriction. As to the kind of experiment: Inhibition of Bronchoconstriction in Guinea Pigs Induced by Exogenously Administered Antigen. Conditions: Cavia porcellus, 5 min, 5 min post-antigen challenge; for inhibition in vivo at 10 mg/kg: iv, 10 mg/kg i.v. The format is in vivo, guinea pig (male). On the procedure:
4. Inhibition of Brochoconstriction in Guinea Pigs Induced by Exogenously Administered Antigen
Male guinea pigs (Charles River, Wilmington, Mass.) were sensitized 3-4 weeks prior to antigen challenge by administration of 2 i.m. injections of ovalbumin, 1 into each hind limb (35 mg total). Sensitized animals (500-600 g) were fasted overnight prior to experimentation. Conscious animals were then dosed p.o. with drug or vehicle alone (0.5% Tween 80 in H2 O) at the indicated times prior to antigen challenge, or anesthetized animals were dosed i.v. with drug or vehicle alone (DMSO) 5 min prior to antigen challenge. Animals were anesthetized by urethane (2.8 g/kg i.p.). A carotid artery and jugular vein were cannulated to allow for the monitoring of blood pressure and the administration of drugs, respectively. The trachea was then cannulated and connected to a Harvard Apparatus rodent ventilator (S. Natick, Mass.). Spontaneous respiration was abolished by the administration of succinylcholine (2.5 mg/kg i.v.). The animals were then ventilated with room air at a rate of 65 breaths per min. Airway inflation pressure was measured using a Statham pressure transducer (Gould Instruments, Cleveland, Ohio) connected to the tracheal cannula via a side-arm and recorded on a Grass Instruments recorder (Quincy, Mass.). The tidal volume (approximately 10 cc/kg) was adjusted to give a baseline inflation pressure of 8-10 cm H2 O at end inspiration. Animals were then allowed 20 min to stabilize.
Following the stabilization period, animals were given i.v. injections of pyrilamine (5 mg/kg), propranolol (0.1 mg/kg) and indomethacin (10 mg/kg) at 15, 10 and 5 min, respectively, prior to antigen challenge. This pretreatment results in an LT-dependent bronchoconstriction following antigen challenge, which was accomplished by i.v. administration of ovalbumin (10 mg/kg). Only one bronchoconstriction per animal was induced. End-inspiratory inflation pressure (in cm H2 O over baseline) was measured at 5 min post-antigen challenge. A mean value and standard error for the % inhibition of control bronchoconstriction in each drug-treated group was then calculated.

`Cc1oc(-c2ccc(F)cc2)nc1COc1cccc(CN(O)C(N)=O)c1` [Example 9, 1-[3-[2-(4-fluorophenyl)-5-methyl-oxazol-4-ylmethoxy]-benzyl]-1-hydroxy-urea] gave an IC50 in assay [1] of 570 nM. In assay [2], this molecule displayed an inhibition in vivo at 10 mg/kg of 65%.

Take `Cc1oc(-c2ccccc2)nc1COc1cc(F)cc(CN(O)C(N)=O)c1` [Example 13, 1-[3-Fluoro-5-(5-methyl-2-phenyl-oxazol-4-ylmethoxy)-benzyl]-1-hydroxy-urea]: the inhibition in vivo at 10 mg/kg in assay [2] was 29%.

For `Cc1oc(-c2ccccc2)nc1COc1cccc(CN(O)C(N)=O)c1` [Example 1, 1-Hydroxy-1-[3-(5-methyl-2-phenyl-oxazol-4-ylmethoxy)-benzyl]-urea], the IC50 in assay [1] came to 640 nM.

Regarding `NC(=O)N(O)Cc1cccc(OCc2csc(-c3ccc(Cl)cc3)n2)c1` [Example 6, 1-Hydroxy-1-[3-[2-(4-chloro-phenyl)-thiazol-4-ylmethoxy]-benzyl]-urea], in assay [1], 590 nM corresponded to half-maximal inhibition (IC50). In addition, in assay [2], at 10 mg/kg the inhibition in vivo was 70%.

In assay [2] (po, 25 mg/kg p.o.), `NC(=O)N(O)Cc1cccc(OCc2csc(-c3ccccc3)n2)c1` [Example 5, 1-Hydroxy-1-[3-(2-phenyl-thiazol-4-ylmethoxy)-benzyl]-urea] displayed an inhibition in vivo at 25 mg/kg of 29%.

What is called IC50 is the midpoint of a concentration-inhibition curve. The term inhibition in vivo denotes the percentage by which the read-out fell short of the control.
